Measured values taken from patent publication US20020197670A1, “Membrane associated progesterone receptor” (priority 2001, published 2002).

How the values were obtained:
membrane PR in HAEC = test: Fluorescent membrane labeling of HAEC at 4° C.; assay type: cell-based, human; conditions: for fluorescent membrane labeling / membrane binding: 4° C. (cells impermeable), FIG. 13A
Experimental: Fluorescent membrane labeling studies were performed with both ligand (progesterone conjugated to BSA) and with antibody C19 at 4° C. Experimentation at cold temperatures keeps the cells impermeable; thus, ligand or antibody cannot enter the cell, and specific binding is restricted to the membrane.
In FIG. 13B, a light microscopy image of the same field as in FIG. 13A is shown to illustrate the position of the cells.
Controls used for these experiments include exposure with BSA and the fluorescent tag in the absence of progesterone for the ligand binding study and use of peptide neutralization for the antibody labeling study. […] Approximately 10% of all cells show positive staining. This percentage has been found by other investigators in experiments with sperm. The reason for this low percentage of staining is not yet clear. One possibility includes differential expression of the membrane PR during the cell cycle.

[1] = system: Aortic endothelial cells (HAEC); test: Calcium response of HAEC to progesterone (fluo-3AM fluorescence); assay type: cell-based, human; conditions: progesterone 50 μM
Experimental: Aortic endothelial cells were cultured in 100 cm petri dishes. All solutions including washes contained probenecid, a chemical that minimizes leakage of fluorophore from the cells. The medium contained BSA, fluo-3-[…] (fluo-3AM), and pluronic F-127, an agent that facilitates diffusion of fluorophore through cell membranes. The cells were incubated for 1 hour at RT. Following incubation, the cells were washed several times and then treated with trypsin. After washing, the cells were enumerated by counting in a hemacytometer and the cell number was adjusted to a predetermined value. Progesterone (50 μM) was added to cell suspensions just prior to fluorescence measurement. An aliquot of the cell suspension was placed in a cuvette and measured in a SLM-8000C fluorescence spectrophotometer. The cells were excited at 504 nm and emitted fluorescence measured at 526 nm. The data (not shown) establishes an immediate 1.5-fold increase in calcium influx with exposure to progesterone. Since this reaction occurred within 2-3 seconds, it is clear that this is a nongenomic response to a sex steroid.

Compound | fluorescent membrane labeling / membrane binding (membrane PR in HAEC) | increase in calcium influx ([1]; HAEC suspension, fluo-3AM, excitation 504 nm, emission 526 nm, data not shown) [fold] | time within which the calcium reaction occurred ([1]; HAEC) [s] | cells showing positive staining for the membrane PR (membrane PR in HAEC; fluorescent membrane labeling, 4° C., FIGS. 13A-13D)
progesterone conjugated to BSA: progesterone-conjugated bovine serum albumin-fluorescein isothiocyanate (Sigma), ligand for fluorescent membrane labeling | staining of the membrane is well seen | – | – | –
CC(=O)[C@H]1CC[C@H]2[C@@H]3CCC4=CC(=O)CC[C@]4(C)[C@H]3CC[C@]12C [progesterone, Progesterone] | specific membrane binding | 1.5 | 2 to 3 | Approximately 10%
